The record followed here is article PMC4467156, “A new chemical inhibitor of angiogenesis and tumorigenesis that targets the VEGF signaling pathway upstream of Ras” (Oncotarget, 2015).

Like-named read-outs stand apart in the source and are kept apart here.

Data set [1] has as its target VEGFR2 (KDR) (Homo sapiens, UniProt P35968). As to the kind of experiment: In vitro kinase assay VEGFR2. In kind it is biochemical. The settings on record: concentrations up to 50 μM. As to the method:
(§1) We first wondered whether COB223 required to be internalized to exert its biological effect. For this, we synthesized a covalent complex between BSA and COB223 and purified it. […] In vitro kinase assays were performed with a panel of purified protein-kinases involved in mitogenic signaling, including VEGFR2, FGFR1, FGFR2, PDGFRß, Met, Raf, MEK1, ERK1, ERK2, PKCα, PKCβI, PKCβII, PKCζ as indicated in Table 2. […] We then analyzed the effect of COB223 on VEGF-induced phosphorylations of VEGFR2, MEK and ERK1/2 (Figure 9). […] (Figure 9A, 9B). […] It was also specific of the p42/p44 MAP kinase pathway as activation of p38 MAP kinase phosphorylation in HUVEC cells by VEGF or serum was unaffected by COB223 (data not shown). The activation of src phosphorylation by VEGF in HUVECs was also unaffected by COB223 (data not shown).

The target in data set [2] is FGFR2 (Homo sapiens, UniProt P21802). In words: In vitro kinase assay FGFR2. In kind it is biochemical. The note with it: concentrations up to 50 μM. As to the method:
as §1

Data set [3] addresses Raf. As to the kind of experiment: In vitro kinase assay Raf. In kind it is biochemical. The settings on record: concentrations up to 50 μM. The method, then: as §1
Data set [4] concerns HMEC-GFP spheroids. As to the kind of experiment: Sprouting of HMEC-GFP spheroids into collagen gels. Format: cell-based. The settings on record: Homo sapiens. As to the method: To prepare spheroids, HMEC-GFP cells were seeded at 3000 cells/well in round-bottom 96-multiwell plates in DMEM 1 g/L glucose (Eurobio, Les Ulis, France) containing 0.25% methylcellulose. 48 h later, the spheroids were collected, transferred into flat-bottom 96-well plates and embedded in collagen gel (1.2 mg/mL type I collagen) prepared in a Iscove's modified Dulbecco's medium, supplemented with FGF-2 (10 ng/mL), 50 U/mL penicillin and 50 μg/mL streptomycin. Treatment with COB223 (10 and 20 μM) started right after spheroids were included in the collagen gels. Sprouting was allowed for 24 h at 37°C. Images were acquired by fluorescence microscopy and analysis of gel invasion was performed using the freeware Image J. Statistical analysis was performed using a Kruskal & Wallis test.
HMEC-GFP cells were developed as spheroids in an Iscove's modified Dulbecco's medium containing 0.2% methylcellulose in round-bottom 96-multiwell plate. Two days later, spheroids were collected and invasion was allowed in a Iscove's modified Dulbecco's medium, supplemented with 1.2 mg/mL collagen I, 50 U/mL Penicillin, 50 μg/mL streptomycin. Molecules (10 or 20 μM) or FGF-2 (10 ng/mL) were added in the preparation before collagen gelification.

In data set [5] the target is PKC ζ (Homo sapiens, UniProt Q05513). In words: In vitro kinase assay PKC ζ. In kind it is biochemical. The note with it: concentrations up to 50 μM. The method, then: as §1
Data set [6] relates to HMVECd cells. In words: Scratch wound closure assay, primary HMVECd. Format: cell-based. The settings on record: Homo sapiens, Endothelial cell; primary dermal microvascular endothelial cells, 10% FCS. The method, then:
Figure 3 Endothelial cell-specific inhibition of wound closure by COB223 The dose-dependent effect of COB223 on cellular wound closure was measured as described in Material and Methods on either HMVECd or on 3T3 cells. The results are expressed as the percentage of wound closure (with closure observed in the presence of 10% FCS taken as 100%) : mean values +/− SD from three experiments.
Confluent cell monolayers were wounded with a plastic pipet tip, washed gently with phosphate buffer saline (PBS) and treated with complete media containing molecules, as indicated. Cells were placed at 37°C into the incubator and photographed at indicated times. Quantitation of closure of the monolayer was performed using the NIH Image J program (http://rsbweb.nih.gov/ij/). Results are expressed as percentage of wound closure at t = 24 h as compared to the initial wound at t = 0 h.

The subject of data set [7] is PLCγ phosphorylation. In words: Western blot, PLCγ phosphorylation in HUVEC. In kind it is cell-based, human. The note with it: 10 ng/mL VEGF-A 15 min, 25 μM COB223. As to the method:
Figure 11 Effect of COB223 on mitogenic or oncogenic activation of the Ras /MEK/ERK signaling pathway (A) Serum-starved HUVEC cells were incubated for 15 min in the presence of 10 ng/mL VEGF-A and in the absence or the presence of 25 μM COB223. The phosphorylations of PLCγ on tyrosine 783, of Raf on serine 338 or on serine 259 and of ERK1/2 were then analyzed by Western blot analysis of the cell lysates as described in Material and Methods. Western blots for total PLCγ, Raf and ERK1/2 were used as loading controls. (B) MCF10A cells overexpressing an oncogenic version of Ras (MCF10A-RasG12V) were treated for the indicated periods of time by 25 μM COB223. Total ERK1/2 and phospho-ERK1/2 were then visualized by Western blotting of the cell extracts. Non-treated regular MCF10A cells were analyzed as a control (first lane). (C) CCL-39 fibroblasts expressing a constitutively active Raf in an estrogen-responsive manner were stimulated for 3 h with estradiol and treated for 15 or 30 min with 25 μM COB223. Total ERK1/2 and phospho-ERK1/2 were then visualized by Western blotting of the cell extracts. Non-treated cells were analyzed as a control (left lanes).
Serum-starved HUVEC cells were incubated for 15 min in the presence of either 10 ng/mL VEGF-A or 20 ng/mL FGF-2 and in the absence or the presence of indicated concentration of COB223. COB223 was incubated 15 min prior to stimulation. […]
Background: Immunoblotting shows a protein as a band on a membrane.

For data set [8], the system named is ERK1/2 phosphorylation. As to the kind of experiment: ERK1/2 phosphorylation in 3T3 fibroblasts. Format: cell-based. The settings on record: data not shown.
For data set [9], the target named is MEK1 (Homo sapiens, UniProt Q02750). In words: In vitro kinase assay MEK1. Format: biochemical. The note with it: concentrations up to 50 μM. As to the method:
as §1

The nature of data set [10]: Tolerance in treated LLC/2 tumor-bearing mice. Format: in vivo, mouse. The settings on record: two week-long treatment with up to 16 mg/kg i.p. The method, then: We chose this model because of its rapid growth in syngenic mice and its strong dependence on angiogenesis. LLC/2 cells (10^6 in 50 μL medium) were subcutaneously injected into the right flank of […] mice. Seven days after tumor inoculation, mice were given an intraperitoneal (i.p.) injection of either solvent (1.7% DMSO) or COB223 every other day. Tumor size was measured with calipers, and the volume was calculated according to the formula (L*w^2)/2 where L and […] stand for length and width respectively. All mice were killed 21 days after tumor grafting.

Data set [11] relates to HUVEC cells. As to the kind of experiment: Binding of 125I-VEGF-A121 to HUVEC cells. The settings on record: data not shown. More on the design: species or system human.

Sequence of FGFR2 (P21802 22-821, species assumed): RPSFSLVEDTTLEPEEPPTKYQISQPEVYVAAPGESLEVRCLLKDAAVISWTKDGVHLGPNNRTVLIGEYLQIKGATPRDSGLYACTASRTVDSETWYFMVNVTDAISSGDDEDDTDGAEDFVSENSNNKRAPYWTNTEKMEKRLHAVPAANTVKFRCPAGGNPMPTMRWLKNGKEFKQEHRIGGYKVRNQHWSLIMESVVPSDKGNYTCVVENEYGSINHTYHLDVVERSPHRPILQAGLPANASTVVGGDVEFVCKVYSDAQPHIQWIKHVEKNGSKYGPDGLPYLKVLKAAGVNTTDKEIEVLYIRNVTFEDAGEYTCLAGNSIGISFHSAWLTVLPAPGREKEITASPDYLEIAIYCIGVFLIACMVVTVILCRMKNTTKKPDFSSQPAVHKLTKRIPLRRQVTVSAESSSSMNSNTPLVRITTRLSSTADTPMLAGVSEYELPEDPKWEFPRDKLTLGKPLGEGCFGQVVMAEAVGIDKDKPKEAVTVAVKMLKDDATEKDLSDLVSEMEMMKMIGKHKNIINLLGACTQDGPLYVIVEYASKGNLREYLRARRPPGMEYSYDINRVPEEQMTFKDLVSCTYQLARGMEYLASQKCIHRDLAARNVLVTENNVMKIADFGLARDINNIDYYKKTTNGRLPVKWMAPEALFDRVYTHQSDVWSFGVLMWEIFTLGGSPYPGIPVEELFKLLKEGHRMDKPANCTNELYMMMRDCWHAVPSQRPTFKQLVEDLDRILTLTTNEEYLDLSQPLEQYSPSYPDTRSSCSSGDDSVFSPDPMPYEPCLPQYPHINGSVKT
Sequence of MEK1 (Q02750 whole entry, species assumed): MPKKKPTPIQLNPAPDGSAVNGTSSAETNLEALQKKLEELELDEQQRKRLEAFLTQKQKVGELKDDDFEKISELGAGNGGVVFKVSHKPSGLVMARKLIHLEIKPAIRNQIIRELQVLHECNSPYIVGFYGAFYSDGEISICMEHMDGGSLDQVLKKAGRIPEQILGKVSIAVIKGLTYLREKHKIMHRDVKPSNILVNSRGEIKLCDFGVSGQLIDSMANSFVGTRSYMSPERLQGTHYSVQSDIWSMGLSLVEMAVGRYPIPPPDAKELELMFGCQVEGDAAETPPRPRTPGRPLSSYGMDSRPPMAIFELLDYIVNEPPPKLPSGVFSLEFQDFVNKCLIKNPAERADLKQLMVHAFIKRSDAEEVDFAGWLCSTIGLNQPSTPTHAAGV
Sequence of PKC ζ (Q05513 whole entry): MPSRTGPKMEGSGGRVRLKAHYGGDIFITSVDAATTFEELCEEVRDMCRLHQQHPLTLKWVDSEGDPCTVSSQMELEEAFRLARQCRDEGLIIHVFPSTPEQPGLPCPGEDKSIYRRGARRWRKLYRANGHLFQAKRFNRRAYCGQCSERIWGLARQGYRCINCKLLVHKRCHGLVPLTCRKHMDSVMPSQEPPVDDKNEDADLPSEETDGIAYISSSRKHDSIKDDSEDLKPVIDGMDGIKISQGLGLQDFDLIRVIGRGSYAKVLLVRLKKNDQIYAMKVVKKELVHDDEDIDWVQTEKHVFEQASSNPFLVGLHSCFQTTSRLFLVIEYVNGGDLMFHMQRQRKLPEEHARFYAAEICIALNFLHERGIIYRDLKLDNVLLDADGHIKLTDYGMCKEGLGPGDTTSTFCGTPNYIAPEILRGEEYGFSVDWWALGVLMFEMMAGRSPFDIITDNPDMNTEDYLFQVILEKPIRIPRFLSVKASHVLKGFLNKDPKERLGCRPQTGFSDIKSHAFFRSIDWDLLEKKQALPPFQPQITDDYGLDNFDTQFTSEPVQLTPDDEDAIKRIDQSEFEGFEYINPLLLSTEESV
Sequence of VEGFR2 (KDR) (P35968 20-1356, species assumed): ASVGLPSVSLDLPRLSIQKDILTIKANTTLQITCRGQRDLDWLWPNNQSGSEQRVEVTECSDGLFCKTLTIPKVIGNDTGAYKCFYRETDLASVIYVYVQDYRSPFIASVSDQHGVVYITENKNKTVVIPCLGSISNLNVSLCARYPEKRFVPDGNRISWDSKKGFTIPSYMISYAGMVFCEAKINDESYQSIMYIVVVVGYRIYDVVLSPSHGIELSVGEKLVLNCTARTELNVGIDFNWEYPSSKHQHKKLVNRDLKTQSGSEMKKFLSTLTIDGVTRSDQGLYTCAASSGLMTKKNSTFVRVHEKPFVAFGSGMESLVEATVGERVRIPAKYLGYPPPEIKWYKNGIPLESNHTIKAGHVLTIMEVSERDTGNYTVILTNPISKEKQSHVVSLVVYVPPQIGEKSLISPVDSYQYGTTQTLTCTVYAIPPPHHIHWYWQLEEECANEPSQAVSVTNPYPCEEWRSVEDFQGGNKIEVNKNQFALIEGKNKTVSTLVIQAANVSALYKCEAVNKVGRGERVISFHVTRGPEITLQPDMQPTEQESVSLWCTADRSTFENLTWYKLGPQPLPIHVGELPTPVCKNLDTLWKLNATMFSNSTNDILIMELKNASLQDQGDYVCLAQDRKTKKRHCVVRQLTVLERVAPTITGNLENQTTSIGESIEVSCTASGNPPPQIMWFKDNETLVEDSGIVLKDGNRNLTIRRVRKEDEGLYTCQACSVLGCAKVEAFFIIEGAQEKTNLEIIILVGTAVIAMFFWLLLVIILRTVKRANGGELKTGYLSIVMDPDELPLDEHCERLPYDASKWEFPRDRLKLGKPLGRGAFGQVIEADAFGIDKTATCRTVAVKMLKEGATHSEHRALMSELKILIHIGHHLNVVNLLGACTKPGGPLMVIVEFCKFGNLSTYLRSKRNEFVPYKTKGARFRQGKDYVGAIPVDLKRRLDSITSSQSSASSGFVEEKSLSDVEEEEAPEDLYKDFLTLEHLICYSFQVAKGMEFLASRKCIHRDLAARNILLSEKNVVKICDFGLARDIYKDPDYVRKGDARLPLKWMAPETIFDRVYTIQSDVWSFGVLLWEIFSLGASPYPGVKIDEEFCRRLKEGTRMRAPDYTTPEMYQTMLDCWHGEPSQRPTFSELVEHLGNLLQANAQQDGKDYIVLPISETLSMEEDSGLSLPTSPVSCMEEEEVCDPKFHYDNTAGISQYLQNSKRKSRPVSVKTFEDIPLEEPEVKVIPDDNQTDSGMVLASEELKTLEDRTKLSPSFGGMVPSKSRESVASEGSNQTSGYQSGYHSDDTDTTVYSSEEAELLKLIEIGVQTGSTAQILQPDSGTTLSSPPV

Consider `CN(C)c1cccc2c(S(=O)(=O)NCCCN3CCN(CCCNC(=O)OC(C)(C)C)CC3)cccc12` [COB223, tert-Butyl 3-(4-(3-(5-(dimethylamino)naphthalene-1-sulfonamido)propyl)piperazin-1-yl) propylcarbamate], for which the “kinase inhibition” value in [1], in data set [2], in data set [3], in data set [5] and in [9] was “None of them was inhibited” each time. Also, the inhibition (usually the change of the read-out against control, counted positive when it falls) at 10 µM in [4] (10 μM COB223, 10 ng/ml FGF-2, collagen I gel, read-out: inhibition of FGF-2-stimulated sprouting) worked out at 70%; in [4] (10 μM COB223, collagen I gel, read-out: inhibition of basal sprouting) it was 50%. The EC50 – broadly, the concentration at which the effect is half-maximal – in data set [6] turned out to be 25 µM. In addition, the “VEGF-induced tyrosine phosphorylation of PLCγ on residue Y783” value in data set [7] was “unaffected”. Moreover, in data set [8], the “FGF2-induced or serum-induced phosphorylation of ERK1/2” value is given as “did not affect”. The “tolerance, adverse effects” value in [10] is listed as “no adverse effect was observed”. The “binding of 125I-VEGF-A121 to HUVEC cells” value in [11] is “unaffected”.
